Among the data in ChEMBL document CHEMBL3407340, “Synthesis, radiolabeling and evaluation of novel 4-oxo-quinoline derivatives as PET tracers for imaging cannabinoid type 2 receptor” (Eur J Med Chem, 2015) are Ki and Activity values, retold here.

For orientation: Ki means a measure of affinity in units of concentration, obtained from inhibition or displacement. Lower therefore signals a stronger hold on the target.

The target in one test is Cannabinoid receptor 1 (Homo sapiens, UniProt P21554). Kind of test: Displacement of [3H]-CP-55940 from human CB1 receptor transfected in CHOK1 cells after 90 mins by liquid scintillation counting analysis. It counts as cell-based, CHO-K1. (In general: In a radioligand displacement assay an active substance lowers the binding of a labelled ligand.)
For test [1], the target named is Cannabinoid receptor 2 (Mus musculus) (UniProt P47936). Kind of test: Binding affinity to CB2 receptor in mouse spleen at 0.4 nM after 15 mins by autoradiography in presence of GW405833. Conditions: tested as the 11C-labelled form.
In test [2] the target is Cannabinoid receptor 2 (Rattus norvegicus) (UniProt Q9QZN9). Kind of test: Binding affinity to CB2 receptor in rat spleen at 0.4 nM after 15 mins by autoradiography in presence of GW405833. It is filed as tissue-based. Conditions: tested as the 11C-labelled form.

Active and inactive are the calls of the source. The calls are words filed in the database; no cut-off is given here.

Sequence of Cannabinoid receptor 1 (P21554 whole entry): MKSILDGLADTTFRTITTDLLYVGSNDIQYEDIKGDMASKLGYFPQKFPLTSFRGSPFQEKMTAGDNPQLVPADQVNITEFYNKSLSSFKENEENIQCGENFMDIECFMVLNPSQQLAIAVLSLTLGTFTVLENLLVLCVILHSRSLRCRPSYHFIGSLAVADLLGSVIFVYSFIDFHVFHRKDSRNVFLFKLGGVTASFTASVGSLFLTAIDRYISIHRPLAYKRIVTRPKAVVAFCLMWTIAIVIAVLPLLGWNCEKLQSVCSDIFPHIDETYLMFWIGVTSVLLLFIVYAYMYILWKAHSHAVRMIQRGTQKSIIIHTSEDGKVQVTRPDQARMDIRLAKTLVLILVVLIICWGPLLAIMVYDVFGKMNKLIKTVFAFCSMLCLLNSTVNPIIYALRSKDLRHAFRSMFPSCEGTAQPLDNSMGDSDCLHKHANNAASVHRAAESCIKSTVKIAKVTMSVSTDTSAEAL
Sequence of Cannabinoid receptor 2 (Rattus norvegicus) (Q9QZN9 whole entry): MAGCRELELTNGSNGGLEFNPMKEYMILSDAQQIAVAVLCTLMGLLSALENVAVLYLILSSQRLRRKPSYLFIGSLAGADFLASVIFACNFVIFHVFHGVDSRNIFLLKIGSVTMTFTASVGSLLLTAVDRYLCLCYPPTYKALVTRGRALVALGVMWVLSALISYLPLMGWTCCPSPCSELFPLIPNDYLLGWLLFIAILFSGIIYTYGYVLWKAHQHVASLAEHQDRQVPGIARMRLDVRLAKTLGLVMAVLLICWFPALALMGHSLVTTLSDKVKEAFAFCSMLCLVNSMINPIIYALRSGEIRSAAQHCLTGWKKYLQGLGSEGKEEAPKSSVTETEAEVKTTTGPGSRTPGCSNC
Sequence of Cannabinoid receptor 2 (Mus musculus) (P47936 whole entry): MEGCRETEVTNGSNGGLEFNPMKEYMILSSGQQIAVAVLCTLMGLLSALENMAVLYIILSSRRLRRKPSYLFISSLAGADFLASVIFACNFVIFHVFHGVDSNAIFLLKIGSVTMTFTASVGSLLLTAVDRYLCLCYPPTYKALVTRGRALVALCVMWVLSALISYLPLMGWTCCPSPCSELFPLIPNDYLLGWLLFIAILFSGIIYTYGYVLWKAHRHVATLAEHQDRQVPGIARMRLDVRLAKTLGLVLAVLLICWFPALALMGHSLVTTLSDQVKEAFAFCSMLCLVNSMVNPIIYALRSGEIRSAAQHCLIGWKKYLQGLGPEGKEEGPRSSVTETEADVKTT

As to `CCOCCn1cc(C(=O)NC23CC4CC(CC(C4)C2)C3)c(=O)c2cccc(OC)c21`, the Ki on Cannabinoid receptor 1 was greater than 10 µM. The outcome in test [1] and in test [2] was inactive. As to `CCOCCn1cc(C(=O)NCCc2ccccc2)c(=O)c2cccc(OC)c21`, on Cannabinoid receptor 1, the Ki is greater than 10 µM. The same measure, in the same setting: for `COc1cccc2c(=O)c(C(=O)NC(C)(C)C)cn(CCCF)c12` the value was greater than 10 µM; for `CCCCn1cc(C(=O)NC2CCCC2)c(=O)c2cccc(OC)c21`, greater than 10 µM; for `CCCCn1cc(C(=O)NC23CC4CC(CC(C4)C2)C3)c(=O)c2cccc(OC)c21`, greater than 10 µM.
